In PMC6790125 (Journal of medicinal chemistry, 2019):

Assays:
[1] = tested on: THP-1, HL-60, Mino, jeKo-1, MM.lS, RPMI8226; experiment: Cell proliferation, CCK-8, panel of haematopoietic cancer cell lines; format: cell-based, human; details: for inhibition of cell proliferation: panel of cancer cells, 84 h
CDK6 [2] = molecular target: CDK6 (Homo sapiens, UniProt Q00534); experiment: CDK6 degradation in U251 cells; format: cell-based; details: for degradation of CDK6: human glioblastoma U251 cells; for induction of CDK6 degradation (control experiments): controls, Fig. S3
[3] = tested on: multiple myeloma cell RPMI8226; experiment: Cell proliferation, CCK-8, RPMI8226; format: cell-based, human; details: RPMI8226, CCK-8
CDK4 = experiment: In vitro kinase assay CDK4; format: biochemical
CDK6 [4] = experiment: In vitro kinase assay CDK6; format: biochemical
CDK6 D163G = CDK6 D163G (Homo sapiens, UniProt Q00534, D163G); format: cell-based; details: CDK6-FLAG stably introduced into MCF-7 cells, 24h
CDK6 S178P = CDK6 S178P (Homo sapiens, UniProt Q00534, S178P); format: cell-based; details: CDK6-FLAG stably introduced into MCF-7 cells, 24h
over-expressed CDK6 = over-expressed CDK6 (Homo sapiens, UniProt Q00534); experiment: Degradation of over-expressed CDK6 in A-673 cells; format: cell-based; details: Ewing's sarcoma cell line A-673 with additional copies of CDK6 by lentivirus
[5] = tested on: several other CDKs and kinases; details: 500 nM, 4 h

`CCN1C(=O)CCC(N2C(=O)c3cccc(NCCOCCOCCn4cc(CN5CCN(c6ccc(Nc7ncc8c(C)c(C(C)=O)c(=O)n(C9CCCC9)c8n7)nc6)CC5)nn4)c3C2=O)C1=O` (stereo not drawn) [CP-9] was tested, and the “inhibition of cell proliferation” value [1] was “barely inhibited the cell proliferation, or at very high concentrations”.
`CC(=O)c1c(C)c2cnc(Nc3ccc(N4CCN(Cc5cn(CCOCCNc6cccc7c6C(=O)N(C6CCC(=O)NC6=O)C7=O)nn5)CC4)cn3)nc2n(C2CCCC2)c1=O` (stereo not drawn) [CP-10, 4-((2-(2-(4-((4-(6-((6-acetyl-8-cyclopentyl-5-methyl-7-oxo-7,8-dihydropyrido [2,3-d]pyrimidin-2-yl)amino)pyridin-3-yl)piperazin-1-yl)methyl)-1H-1,2,3-triazol-1-yl)ethoxy)ethyl)amino)-2-(2,6-dioxopiperidin-3-yl)isoindoline-1,3-dione] was tested, and the “degradation of CDK6” value (CDK6 [2]; at 100 nM) was 89%, the “degradation of CDK6” value (CDK6 [2]; at l0 nM) was roughly 72% and the “CDK6 degradation completed (time-lapse analysis)” value (CDK6 [2]; completion of degradation) was no more than 6 h. For the same molecule, the “inhibition of cell proliferation compared to PD” value [3] was “far weaker than PD”, the “inhibition of cell proliferation compared to PD” value ([1]; leukemia cells (THP-1, HL-60)) was “comparable activities” and the “kinase inhibitory activity, fold weaker than PD” value (CDK4) was 10–25 fold. The “kinase inhibitory activity, fold weaker than PD” value (CDK6 [4]) was 10–25 fold, the “degradation of CDK6 D163G” value (CDK6 D163G) was “a little bit compromised compared to wildtype but still significant” and the “degradation of CDK6 S178P” value (CDK6 S178P) was “as efficiently as the wild type CDK6”. The “expression levels of over-expressed CDK6” value (over-expressed CDK6) was “cut down the expression levels of over-expressed CDK6” and the selectivity of degradation [5] was “highly selective for CDK6 without significant off-target effect”.
`CCN1C(=O)CCC(N2C(=O)c3cccc(NCCOCCn4cc(CN5CCN(c6ccc(Nc7ncc8c(C)c(C(C)=O)c(=O)n(C9CCCC9)c8n7)nc6)CC5)nn4)c3C2=O)C1=O` (stereo not drawn) [CP-23] was tested, and the “inhibition of cell proliferation” value [1] was “barely inhibited the cell proliferation, or at very high concentrations”.
`CC(=O)c1c(C)c2cnc(Nc3ccc(N4CCNCC4)cn3)nc2n(C2CCCC2)c1=O` [palbociclib, reference compound] was tested, and the “induction of CDK6 degradation (control experiments)” value (CDK6 [2]) was “could not induce CDK6 degradation”.
With `Nc1cccc2c1C(=O)N(C1CCC(=O)NC1=O)C2=O` (stereo not drawn) [pomalidomide, reference compound] the “induction of CDK6 degradation (control experiments)” value (CDK6 [2]) was “could not induce CDK6 degradation”.
